Experimental data as given in ChEMBL document CHEMBL3885881, “DrugMatrix”.

Organism: Rattus norvegicus
Assay: DrugMatrix - Regimen: Daily Repeat
Assay type: toxicity, organism-based, Sprague-Dawley
Set-up: regimen Daily Repeat, gender Male, age 6-8 weeks
Conditions: in vivo, po, route oral GAVAGE, vehicle 100 % SALINE; for ABSOLUTE BASOPHIL / ABSOLUTE EOSINOPHIL / ABSOLUTE LYMPHOCYTE / ABSOLUTE MONOCYTE / ABSOLUTE SEGMENTED NEUTROPHIL / BASOPHIL / EOSINOPHIL / ERYTHROCYTE COUNT / HEMATOCRIT / HEMOGLOBIN / LEUKOCYTE COUNT / LYMPHOCYTE / MEAN CORPUSCULAR HEMOGLOBIN / MEAN CORPUSCULAR HEMOGLOBIN CONCENTRATION / MEAN CORPUSCULAR VOLUME / MONOCYTE / NEUTROPHIL / NUCLEATED RED BLOOD CELLS / PLATELET COUNT: tissue Blood; for ALANINE AMINOTRANSFERASE / ALBUMIN / ALKALINE PHOSPHATASE / ASPARTATE AMINOTRANSFERASE / BLOOD UREA NITROGEN / CARBON DIOXIDE / CHLORIDE / CHOLESTEROL / CREATINE PHOSPHOKINASE / CREATININE / GLUCOSE / LACTATE DEHYDROGENASE / LIPASE / PHOSPHORUS / POTASSIUM / SODIUM / TOTAL BILIRUBIN / TOTAL PROTEIN / URIC ACID: tissue Plasma
[1] = 46 mg/kg, 120 h, dose level Low, time 5 day
[2] = 360 mg/kg, 72 h, dose level High, time 3 day
[3] = 360 mg/kg, 120 h, dose level High, time 5 day

Compound: COc1ccc2cc(CC(=O)O)ccc2c1
- ABSOLUTE BASOPHIL [1]: 0 CELLS/uL
- ABSOLUTE EOSINOPHIL [1]: 93.33 CELLS/uL
- ABSOLUTE LYMPHOCYTE [1]: 9837 CELLS/uL
- ABSOLUTE MONOCYTE [1]: 271.67 CELLS/uL
- ABSOLUTE SEGMENTED NEUTROPHIL [1]: 1398 CELLS/uL
- BASOPHIL [1]: 0%
- EOSINOPHIL [1]: 0.67%
- ERYTHROCYTE COUNT [1]: 5.65 x10E6/uL
- HEMATOCRIT [1]: 35.2%
- HEMOGLOBIN [1]: 13.83 G/DL
- LEUKOCYTE COUNT [1]: 11.6 x10E3/uL
- LYMPHOCYTE [1]: 86%
- MEAN CORPUSCULAR HEMOGLOBIN [1]: 24.5 pg
- MEAN CORPUSCULAR HEMOGLOBIN CONCENTRATION [1]: 39.33 G/DL
- MEAN CORPUSCULAR VOLUME [1]: 62.23 fL
- MONOCYTE [1]: 2.33%
- NEUTROPHIL [1]: 11%
- NUCLEATED RED BLOOD CELLS [1]: 0 /100WBC
- PLATELET COUNT [1]: 1138.33 x10E3/uL
- ALANINE AMINOTRANSFERASE [1]: 39.67 u/L
- ALBUMIN [1]: 3.93 G/DL
- ALKALINE PHOSPHATASE [1]: 339 u/L
- ASPARTATE AMINOTRANSFERASE [1]: 71 u/L
- BLOOD UREA NITROGEN [1]: 16.67 mg/dL
- CARBON DIOXIDE [1]: 37.33 mmol/L
- CHLORIDE [1]: 100 MEQ/L
- CHOLESTEROL [1]: 65.67 mg/dL
- CREATINE PHOSPHOKINASE [1]: 168 u/L
- CREATININE [1]: 0.25 mg/dL
- GLUCOSE [1]: 144.33 mg/dL
- LACTATE DEHYDROGENASE [1]: 125.67 u/L
- LIPASE [1]: 9.33 u/L
- PHOSPHORUS [1]: 9.93 mg/dL
- POTASSIUM [1]: 6.48 MEQ/L
- SODIUM [1]: 142.9 MEQ/L
- TOTAL BILIRUBIN [1]: 0.2 mg/dL
- TOTAL PROTEIN [1]: 5.57 G/DL
- URIC ACID [1]: 1.23 mg/dL
- ABSOLUTE BASOPHIL [2]: 0 CELLS/uL
- ABSOLUTE EOSINOPHIL [2]: 13.33 CELLS/uL
- ABSOLUTE LYMPHOCYTE [2]: 7596.67 CELLS/uL
- ABSOLUTE MONOCYTE [2]: 249.33 CELLS/uL
- ABSOLUTE SEGMENTED NEUTROPHIL [2]: 2774 CELLS/uL
- BASOPHIL [2]: 0%
- EOSINOPHIL [2]: 0.33%
- ERYTHROCYTE COUNT [2]: 3.71 x10E6/uL
- HEMATOCRIT [2]: 23.17%
- HEMOGLOBIN [2]: 9.43 G/DL
- LEUKOCYTE COUNT [2]: 10.63 x10E3/uL
- LYMPHOCYTE [2]: 66.67%
- MEAN CORPUSCULAR HEMOGLOBIN [2]: 25.93 pg
- MEAN CORPUSCULAR HEMOGLOBIN CONCENTRATION [2]: 41.23 G/DL
- MEAN CORPUSCULAR VOLUME [2]: 62.9 fL
- MONOCYTE [2]: 1.67%
- NEUTROPHIL [2]: 31.33%
- NUCLEATED RED BLOOD CELLS [2]: 1.67 /100WBC
- PLATELET COUNT [2]: 943 x10E3/uL
- ALANINE AMINOTRANSFERASE [2]: 45.33 u/L
- ALBUMIN [2]: 2.4 G/DL
- ALKALINE PHOSPHATASE [2]: 253 u/L
- ASPARTATE AMINOTRANSFERASE [2]: 212.33 u/L
- BLOOD UREA NITROGEN [2]: 22.33 mg/dL
- CARBON DIOXIDE [2]: 20.33 mmol/L
- CHLORIDE [2]: 99.67 MEQ/L
- CHOLESTEROL [2]: 66.67 mg/dL
- CREATINE PHOSPHOKINASE [2]: 1447.67 u/L
- CREATININE [2]: 0.17 mg/dL
- GLUCOSE [2]: 135.67 mg/dL
- LACTATE DEHYDROGENASE [2]: 735.67 u/L
- LIPASE [2]: 8.67 u/L
- PHOSPHORUS [2]: 17 mg/dL
- POTASSIUM [2]: 8 MEQ/L
- SODIUM [2]: 141 MEQ/L
- TOTAL BILIRUBIN [2]: 0.17 mg/dL
- TOTAL PROTEIN [2]: 5.13 G/DL
- URIC ACID [2]: 3.87 mg/dL
- ABSOLUTE BASOPHIL [3]: 0 CELLS/uL
- ABSOLUTE EOSINOPHIL [3]: 0 CELLS/uL
- ABSOLUTE LYMPHOCYTE [3]: 14145 CELLS/uL
- ABSOLUTE MONOCYTE [3]: 225 CELLS/uL
- ABSOLUTE SEGMENTED NEUTROPHIL [3]: 8130 CELLS/uL
- BASOPHIL [3]: 0%
- EOSINOPHIL [3]: 0%
- ERYTHROCYTE COUNT [3]: 4.19 x10E6/uL
- HEMATOCRIT [3]: 26.25%
- HEMOGLOBIN [3]: 10.55 G/DL
- LEUKOCYTE COUNT [3]: 22.5 x10E3/uL
- LYMPHOCYTE [3]: 62%
- MEAN CORPUSCULAR HEMOGLOBIN [3]: 25.2 pg
- MEAN CORPUSCULAR HEMOGLOBIN CONCENTRATION [3]: 40.2 G/DL
- MEAN CORPUSCULAR VOLUME [3]: 62.7 fL
- MONOCYTE [3]: 1%
- NEUTROPHIL [3]: 37%
- NUCLEATED RED BLOOD CELLS [3]: 0 /100WBC
- PLATELET COUNT [3]: 2123.5 x10E3/uL
- ALANINE AMINOTRANSFERASE [3]: 16.5 u/L
- ALBUMIN [3]: 2.7 G/DL
- ALKALINE PHOSPHATASE [3]: 153.5 u/L
- ASPARTATE AMINOTRANSFERASE [3]: 50 u/L
- BLOOD UREA NITROGEN [3]: 14 mg/dL
- CARBON DIOXIDE [3]: 28 mmol/L
- CHLORIDE [3]: 103 MEQ/L
- CHOLESTEROL [3]: 71.5 mg/dL
- CREATINE PHOSPHOKINASE [3]: 441 u/L
- CREATININE [3]: 0.14 mg/dL
- GLUCOSE [3]: 156.5 mg/dL
- LACTATE DEHYDROGENASE [3]: 371.5 u/L
- LIPASE [3]: 8 u/L
- PHOSPHORUS [3]: 10.3 mg/dL
- POTASSIUM [3]: 5.81 MEQ/L
- SODIUM [3]: 139.25 MEQ/L
- TOTAL BILIRUBIN [3]: 0.1 mg/dL
- TOTAL PROTEIN [3]: 4.85 G/DL
- URIC ACID [3]: 2.15 mg/dL
